For test [1], the target named is T1, HCV polymerase 1A (Δ21 NS5B, H77) (Hepatitis C virus genotype 1a, UniProt P27958).
T1 construct: 20 to 50 nM Δ21 NS5B
Kind of test: HCV Polymerase Inhibition Assay (1a). Format: biochemical. On the procedure:
(§1) The reaction was initiated by the addition of 20 μM CTP, 20 μM ATP, 1 μM ^3H-UTP (10 mCi/μmol), 5 nM template RNA and 0.1 U/μL RNase inhibitor (RNasin, Promega), and allowed to proceed for 2 to 4 hours at room temperature. Reaction volume was 50 μL. The reaction was terminated by the addition of 1 volume of 4 mM spermine in 10 mM Tris-Cl pH 8.0, 1 mM EDTA. After incubation for at least 15 minutes at room temperature, the precipitated RNA was captured by filtering through a GF/B filter (Millipore) in a 96 well format. The filter plate was washed three times with 200 μL each of 2 mM spermine, 10 mM Tris-Cl pH 8.0, 1 mM EDTA, and 2 times with ethanol. After air-drying, 30 μL of Microscint 20 scintillation cocktail (Packard) was added to each well, and the retained cpm were determined by scintillation counting. […] Retained cpm were plotted vs. inhibitor concentration and fit to equation 1 using non-linear regression (ref. 1) to obtain the IC50 values: Retained cpm=A[sqrt{(IC50+It−Et)^2+4*IC50*Et}−(IC50+It−Et)] (equation 1) where A=Vmax[S]/2(Km+[S]); It=total inhibitor concentration and Et=total active concentration of enzyme.
(§2) Ref. Morrison, J. F. and S. R. Stone. 1985. Approaches to the study and analysis of the inhibition of enzymes by slow- and tight-binding inhibitors. Comments Mol. Cell. Biophys. 2: 347-368.
(§3) The sequence of the template RNA used was: 5′-[…] […] […] […] […] […] […] […] […] […] […] […] […] […] […] […] […]-3′ (SEQ ID NO: 1).

The target in test [2] is T2, HCV polymerase 1B (Δ21 NS5B, BK) (Hepatitis C virus genotype 1b, UniProt P26663).
T2 construct: 20 to 50 nM Δ21 NS5B
Description: HCV Polymerase Inhibition Assay (1b). Format: biochemical. On the procedure:
as §1, §2, §3

The test system of test [3] is genotype 1a-H77 subgenomic replicon cell line. Kind of test: HCV Polymerase Replicon Assay (genotype 1a-H77). Format: cell-based. The conditions noted are these: Hepatitis C virus, 72 h; 1a-H77 replicon, luciferase reporter, 5% FBS, three days. (In antiviral work, replicon cells carry a viral genome segment that copies itself.)
The test system of test [4] is genotype 1b-Con1 subgenomic replicon cell line. Kind of test: HCV Polymerase Replicon Assay (genotype 1b-Con1). The conditions noted are these: Hepatitis C virus, 72 h; 1b-Con1 replicon, luciferase reporter, 5% FBS, three days. Format: cell-based.

For orientation: IC50 means the concentration at which inhibition is half-maximal. Broadly, the EC50 is the concentration giving half of the maximal effect. A higher EC50 goes with a need for much substance.

T1 sequence (P27958 2421-2990, stated change not applied): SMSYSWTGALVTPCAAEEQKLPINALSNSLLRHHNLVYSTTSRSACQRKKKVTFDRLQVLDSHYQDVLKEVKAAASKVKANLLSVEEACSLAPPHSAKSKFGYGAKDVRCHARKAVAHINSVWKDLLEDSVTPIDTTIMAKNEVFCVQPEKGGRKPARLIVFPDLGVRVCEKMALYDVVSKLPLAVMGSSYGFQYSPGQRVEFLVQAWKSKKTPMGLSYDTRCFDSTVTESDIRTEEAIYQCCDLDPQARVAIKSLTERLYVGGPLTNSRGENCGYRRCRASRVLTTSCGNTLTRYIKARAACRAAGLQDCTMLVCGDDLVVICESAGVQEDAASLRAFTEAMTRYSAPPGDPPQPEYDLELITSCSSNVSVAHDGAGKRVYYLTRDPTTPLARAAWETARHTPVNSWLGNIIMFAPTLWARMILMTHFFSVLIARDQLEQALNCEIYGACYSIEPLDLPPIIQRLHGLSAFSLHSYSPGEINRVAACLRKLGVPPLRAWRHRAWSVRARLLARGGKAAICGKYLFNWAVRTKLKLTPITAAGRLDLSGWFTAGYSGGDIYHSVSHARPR
T2 sequence (P26663 2420-2989, stated change not applied): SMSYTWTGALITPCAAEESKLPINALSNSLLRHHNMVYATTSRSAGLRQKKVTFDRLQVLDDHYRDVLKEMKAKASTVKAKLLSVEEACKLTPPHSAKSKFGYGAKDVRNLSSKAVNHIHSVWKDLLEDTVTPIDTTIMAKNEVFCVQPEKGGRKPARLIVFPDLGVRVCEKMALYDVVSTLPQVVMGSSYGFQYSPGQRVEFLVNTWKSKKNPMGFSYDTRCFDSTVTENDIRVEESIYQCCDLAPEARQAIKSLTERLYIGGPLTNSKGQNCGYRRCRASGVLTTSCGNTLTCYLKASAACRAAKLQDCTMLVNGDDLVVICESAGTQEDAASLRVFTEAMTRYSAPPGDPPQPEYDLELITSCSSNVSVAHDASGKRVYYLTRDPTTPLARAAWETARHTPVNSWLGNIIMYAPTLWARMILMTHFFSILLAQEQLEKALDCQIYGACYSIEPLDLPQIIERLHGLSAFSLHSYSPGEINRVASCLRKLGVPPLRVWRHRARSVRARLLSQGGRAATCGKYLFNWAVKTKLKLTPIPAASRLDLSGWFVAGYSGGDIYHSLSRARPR

On to `CC(C)(C)c1cc(N2CCC(=O)NC2=O)cc2c(Nc3ccc(NS(C)(=O)=O)cc3)ncnc12` [Compound 6, N-(4-(8-tert-butyl-6-(2,4-dioxotetrahydropyrimidin-1(2H)-yl)quinazolin-4-ylamino)phenyl)methanesulfonamide], for which the concentration for half-maximal inhibition (IC50) in test [1] and in test [2] was 10 to 100 nM each time. Also, the EC50 in test [3] and in test [4] was 100 to 1000 nM each time.

In the case of `COc1c(C(C)(C)C)cc(-n2ccc(=O)[nH]c2=O)c2ccc(-c3ccc(NS(C)(=O)=O)cc3)nc12` [Compound 2, N-(4-(7-tert-butyl-5-(2,4-dioxo-3,4-dihydropyrimidin-1(2H)-yl)-8-methoxyquinolin-2-yl)phenyl)methanesulfonamide], the IC50 in test [1] and in test [2] was greater than 1000 nM in each case.

Regarding `CC(C)(C)c1cc(-n2ccc(=O)[nH]c2=O)cc2c(Nc3cc(CNS(C)(=O)=O)cs3)ncnc12` [Compound 7, N-((5-(8-tert-butyl-6-(2,4-dioxo-3,4-dihydropyrimidin-1(2H)-yl)quinazolin-4-ylamino)thiophen-3-yl)methyl)methanesulfonamide], the IC50 in test [1] was 10 to 100 nM; in test [2], less than 10 nM. For the same compound, the EC50 is greater than 1000 nM in test [3] and 100 to 1000 nM in test [4].

As to `CC1(C)COc2c(-c3ccc4cc(NS(C)(=O)=O)ccc4c3)cc(-n3ccc(=O)[nH]c3=O)cc21` [Compound 3, N-(6-(5-(2,4-dioxo-3,4-dihydropyrimidin-1(2H)-yl)-3,3-dimethyl-2,3-dihydrobenzofuran-7-yl)naphthalen-2-yl)methanesulfonamide], the figures for the IC50 in test [1] and in test [2] were less than 10 nM and 10 to 100 nM, respectively. In addition, the EC50 in test [3] fell in the range of 100 to 1000 nM; in test [4], 10 to 100 nM.

As to `CC1(C)CC(=O)Oc2c1cc(N1CCC(=O)NC1=O)c1ccccc21` [Compound 4, 1-(4,4-dimethyl-2-oxo-3,4-dihydro-2H-benzo[h]chromen-6-yl)dihydropyrimidine-2,4(1H,3H)-dione], the IC50 in test [1] is greater than 1000 nM; in test [2], 100 to 1000 nM.

For `CC(C)(C)c1cc(-n2ccc(=O)[nH]c2=O)cc2c(Nc3ccc(NS(C)(=O)=O)cc3)ncnc12` [Compound 5, N-(4-(8-tert-butyl-6-(2,4-dioxo-3,4-dihydropyrimidin-1(2H)-yl)quinazolin-4-ylamino)phenyl)methanesulfonamide], the IC50 in test [1] and in test [2] was 10 to 100 nM in each case. The results for the EC50 in test [3] and in test [4] were greater than 1000 nM and 100 to 1000 nM, respectively.

Consider `COc1c(C(C)(C)C)cc(-n2ccc(=O)[nH]c2=O)c2cccnc12` [Compound 1, 1-(7-tert-butyl-8-methoxyquinolin-5-yl)pyrimidine-2,4(1H,3H)-dione], for which the half-inhibitory concentration (IC50) in test [1] and in test [2] was 10 to 100 nM in each case. Moreover, the EC50 was 100 to 1000 nM in test [3] and no more than 10 nM in test [4].

Values taken from patent publication US8741914B2, “Antiviral compounds and uses thereof” (priority 2009, dated 2014).
